These results are taken from US20180148418A1, “AMIDO-SUBSTITUTED CYCLOHEXANE DERIVATIVES” (Bayer Pharma Aktiengesellschaft, priority 2015, published 2018).

For experiment [1], the system named is HEK293 cells cotransfected with the FOP control vector. Briefly: HEK293 FOP assay (control reporter with non-functional TCF elements). It counts as cell-based. To be noted: Homo sapiens, 16 hours. In outline:
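Compound series from 50 μM down to 15 nM, prediluted in DMSO then 50-fold into CAFTY buffer (pH 7.4, 2 mM Ca2+, 0.01% BSA), tested alongside TOP cells on a Geneticin-selected HEK293 FOP line whose TCF elements are replaced by a random sequence; recombinant human Wnt-3a applied at 2500-5 ng/ml.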

The next experiment addresses T1, TNKS2 (Homo sapiens, UniProt Q9H2K2).
T1 construct: purchased BPS Bioscience, San Diego, USA 80572 (TNKS2 Histone Ribosylation Assay Kit)
T1 sequence (Q9H2K2 1-1166): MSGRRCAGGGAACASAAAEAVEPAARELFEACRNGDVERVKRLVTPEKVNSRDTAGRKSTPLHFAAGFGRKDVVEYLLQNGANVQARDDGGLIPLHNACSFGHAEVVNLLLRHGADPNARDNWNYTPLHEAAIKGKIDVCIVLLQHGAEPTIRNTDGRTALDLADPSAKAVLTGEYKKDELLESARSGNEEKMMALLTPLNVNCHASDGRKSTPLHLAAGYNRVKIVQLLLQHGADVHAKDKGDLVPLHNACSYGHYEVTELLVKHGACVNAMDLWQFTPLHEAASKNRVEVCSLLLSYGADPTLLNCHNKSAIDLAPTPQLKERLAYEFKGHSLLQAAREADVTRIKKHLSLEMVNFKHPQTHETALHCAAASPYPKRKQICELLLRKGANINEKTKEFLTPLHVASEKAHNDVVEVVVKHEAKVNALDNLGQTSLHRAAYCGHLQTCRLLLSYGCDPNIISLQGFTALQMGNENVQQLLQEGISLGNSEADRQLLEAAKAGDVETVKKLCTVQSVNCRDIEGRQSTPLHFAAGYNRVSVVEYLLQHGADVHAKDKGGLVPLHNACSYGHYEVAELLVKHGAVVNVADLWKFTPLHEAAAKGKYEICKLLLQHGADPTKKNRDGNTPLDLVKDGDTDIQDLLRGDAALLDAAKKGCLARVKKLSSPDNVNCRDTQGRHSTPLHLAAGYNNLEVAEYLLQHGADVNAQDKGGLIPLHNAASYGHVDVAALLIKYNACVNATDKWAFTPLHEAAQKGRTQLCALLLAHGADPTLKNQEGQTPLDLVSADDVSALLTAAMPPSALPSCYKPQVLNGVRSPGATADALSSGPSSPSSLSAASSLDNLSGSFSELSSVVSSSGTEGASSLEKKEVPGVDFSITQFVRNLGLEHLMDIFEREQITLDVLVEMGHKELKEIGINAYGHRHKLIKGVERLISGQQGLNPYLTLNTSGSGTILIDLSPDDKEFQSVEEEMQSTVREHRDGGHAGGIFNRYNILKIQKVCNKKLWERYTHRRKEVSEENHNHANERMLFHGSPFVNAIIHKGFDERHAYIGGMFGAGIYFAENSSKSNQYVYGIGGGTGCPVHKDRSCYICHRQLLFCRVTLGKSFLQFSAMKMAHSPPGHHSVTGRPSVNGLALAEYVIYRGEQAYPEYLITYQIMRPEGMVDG
Kind of experiment: TNKS2 Assay B (auto-parsylation, [3H]-NAD+ SPA). Format: biochemical. To be noted: 6 nM TNKS2, auto-parsylation, over night at room temperature.

In experiment [2] the test system is wildtype Wnt signaling cascade. Briefly: HEK293 TOP assay (Super TopFlash luciferase reporter, Wnt-3a stimulated). Format: cell-based. To be noted: Homo sapiens, HEK293, 16 h, HEK293 TOP reporter cells, Wnt3a at EC50, 16 hours. In outline: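 Compound series (50 μM down to 15 nM, 3.16-fold) diluted from DMSO 50-fold into CAFTY buffer, pH 7.4, 2 mM Ca^2+, 0.01% BSA, applied to Wnt-3a-stimulated HEK293 TopFlash and FOP reporter lines in parallel. Cells seeded 10000/well 24 h before; luciferase signal measured.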
For orientation: In a reporter assay the amount or activity of a reporter protein is the signal.

With `COC[C@H](C)NC(=O)c1nc[nH]c1C(=O)N[C@H]1CC[C@H](C(=O)Nc2ccc(F)cc2Cl)CC1` [Example 83, N^5-{trans-4-[(2-chloro-4-fluorophenyl)carbamoyl]cyclohexyl}-N^4-[(2S)-1-methoxypropan-2-yl]-1H-imidazole-4,5-dicarboxamide], the concentration for half-maximal inhibition (IC50) in experiment [1] came out at 29000 nM; on TNKS2, 270 nM; in experiment [2], 240 nM.

As to `COC[C@@H](C)NC(=O)c1nc[nH]c1C(=O)N[C@H]1CC[C@H](C(=O)Nc2ccc(F)cc2Cl)CC1` [Example 84, N^5-{trans-4-[(2-chloro-4-fluorophenyl)carbamoyl]cyclohexyl}-N^4-[(2R)-1-methoxypropan-2-yl]-1H-imidazole-4,5-dicarboxamide], the IC50 in experiment [1] is not below 50000 nM; against TNKS2 it was 230 nM; in experiment [2] it was 230 nM.

As to `COC(C)(C)CNC(=O)c1nc[nH]c1C(=O)N[C@H]1CC[C@H](C(=O)Nc2cc(F)c(F)cc2Cl)CC1` [Example 85, N^5-{trans-4-[(2-chloro-4,5-difluorophenyl)carbamoyl]cyclohexyl}-N^4-(2-methoxy-2-methylpropyl)-1H-imidazole-4,5-dicarboxamide], the IC50 was found to be 24000 nM in experiment [1], 23 nM on TNKS2 and 130 nM in experiment [2].

As for `O=C(NCC1CCCO1)c1nc[nH]c1C(=O)N[C@H]1CC[C@H](C(=O)Nc2cc(F)c(F)cc2Cl)CC1` (stereo partly drawn) [Example 86, N^5-{trans-4-[(2-chloro-4,5-difluorophenyl)carbamoyl]cyclohexyl}-N^4-(tetrahydrofuran-2-ylmethyl)-1H-imidazole-4,5-dicarboxamide], the concentration for half-maximal inhibition (IC50) in experiment [1] amounted to 14000 nM; on TNKS2, 22 nM; in experiment [2], 94 nM.

On to `COCC(C)NC(=O)c1nc[nH]c1C(=O)N[C@H]1CC[C@H](C(=O)Nc2cc(F)c(F)cc2Cl)CC1` (stereo partly drawn) [Example 87, N^5-{trans-4-[(2-chloro-4,5-difluorophenyl)carbamoyl]cyclohexyl}-N^4-(1-methoxypropan-2-yl)-1H-imidazole-4,5-dicarboxamide], for which the values for the 50% inhibitory concentration (IC50) (in experiment [1]; at TNKS2; in experiment [2]) were not below 50000 nM, 51 nM and 60 nM, respectively.

In the case of `CNC(=O)c1nc[nH]c1C(=O)N[C@H]1CC[C@H](C(=O)Nc2cc(N3CCOCC3)ccc2Cl)CC1` [Example 88, N^5-(trans-4-{[2-chloro-5-(morpholin-4-yl)phenyl]carbamoyl}cyclohexyl)-N^4-methyl-1H-imidazole-4,5-dicarboxamide], the IC50 in experiment [1] is not below 50000 nM; at TNKS2, 7100 nM; in experiment [2], 2400 nM.

For the compound `O=C(NCC1CCCO1)c1nc[nH]c1C(=O)N[C@H]1CC[C@H](C(=O)Nc2cc(N3CCOCC3)ccc2Cl)CC1` (stereo partly drawn) [Example 89, N^5-(trans-4-{[2-chloro-5-(morpholin-4-yl)phenyl]carbamoyl}cyclohexyl)-N^4-(tetrahydrofuran-2-ylmethyl)-1H-imidazole-4,5-dicarboxamide], the IC50 in experiment [1] was 24000 nM; on TNKS2, 1600 nM; in experiment [2] it was 1200 nM.

In the case of `COC(C)(C)CNC(=O)c1nc[nH]c1C(=O)N[C@H]1CC[C@H](C(=O)Nc2cc(N3CCOCC3)ccc2Cl)CC1` [Example 90, N^5-(trans-4-{[2-chloro-5-(morpholin-4-yl)phenyl]carbamoyl}cyclohexyl)-N^4-(2-methoxy-2-methylpropyl)-1H-imidazole-4,5-dicarboxamide], the IC50 worked out at 33000 nM in experiment [1], 2700 nM against TNKS2 and 1900 nM in experiment [2].

Turning to `CC(C)(O)CNC(=O)c1nc[nH]c1C(=O)N[C@H]1CC[C@@]2(CCN(c3cccc(Cl)c3)C2=O)CC1` [Example 284, N^5-[(trans)-2-(3-chlorophenyl)-1-oxo-2-azaspiro[4.5]dec-8-yl]-N^4-(2-hydroxy-2-methylpropyl)-1H-imidazole-4,5-dicarboxamide], the IC50 was determined as 6800 nM in experiment [1], 220 nM on TNKS2 and 100 nM in experiment [2].

Regarding `COCC(C)NC(=O)c1nc[nH]c1C(=O)N[C@H]1CC[C@@]2(CCN(c3cccc(Cl)c3)C2=O)CC1` (stereo partly drawn) [Example 285, N^5-[(trans)-2-(3-chlorophenyl)-1-oxo-2-azaspiro[4.5]dec-8-yl]-N^4-(1-methoxypropan-2-yl)-1H-imidazole-4,5-dicarboxamide], the IC50 was 16000 nM in experiment [1], 380 nM on TNKS2 and 92 nM in experiment [2].

On to `O=C(N[C@H]1CC[C@@]2(CCN(c3cccc(Cl)c3)C2=O)CC1)c1[nH]cnc1C(=O)N1CCOCC1` [Example 286, N-[(trans)-2-(3-chlorophenyl)-1-oxo-2-azaspiro[4.5]dec-8-yl]-4-(morpholin-4-ylcarbonyl)-1H-imidazole-5-carboxamide], for which the IC50 in experiment [1] is not below 50000 nM; at TNKS2, 4400 nM; in experiment [2] it was 28 nM.

For `CNC(=O)c1nc[nH]c1C(=O)N[C@H]1CC[C@@]2(CCN(c3cc(C)c(F)cc3Cl)C2=O)CC1` [Example 288, N^5-[(trans)-2-(2-chloro-4-fluoro-5-methylphenyl)-1-oxo-2-azaspiro[4.5]dec-8-yl]-N^4-methyl-1H-imidazole-4,5-dicarboxamide], the results for the IC50 (in experiment [1]; against TNKS2; in experiment [2]) were 20000 nM, 2.8 nM and 1.4 nM, respectively.

`CCNC(=O)c1nc[nH]c1C(=O)N[C@H]1CC[C@@]2(CCN(c3cc(C)c(F)cc3Cl)C2=O)CC1` [Example 289, N^5-[(trans)-2-(2-chloro-4-fluoro-5-methylphenyl)-1-oxo-2-azaspiro[4.5]dec-8-yl]-N^4-ethyl-1H-imidazole-4,5-dicarboxamide]: the IC50 in experiment [1] worked out at 16000 nM; at TNKS2, 2.9 nM; in experiment [2], 1.8 nM.

In the case of `Cc1cc(N2CC[C@]3(CC[C@@H](NC(=O)c4[nH]cnc4C(=O)NCCN4CCC(C)CC4)CC3)C2=O)c(Cl)cc1F` [Example 290, N^5-[(trans)-2-(2-chloro-4-fluoro-5-methylphenyl)-1-oxo-2-azaspiro[4.5]dec-8-yl]-N^4-[2-(4-methylpiperidin-1-yl)ethyl]-1H-imidazole-4,5-dicarboxamide], the concentration for half-maximal inhibition (IC50) amounted to 16000 nM in experiment [1], 1.7 nM at TNKS2 and 4.7 nM in experiment [2].

`Cc1cc(N2CC[C@]3(CC[C@@H](NC(=O)c4[nH]cnc4C(=O)NCC(F)(F)F)CC3)C2=O)c(Cl)cc1F` [Example 297, N^5-[(trans)-2-(2-chloro-4-fluoro-5-methylphenyl)-1-oxo-2-azaspiro[4.5]dec-8-yl]-N^4-(2,2,2-trifluoroethyl)-1H-imidazole-4,5-dicarboxamide]: the values for the concentration for half-maximal inhibition (IC50) (in experiment [1]; against TNKS2; in experiment [2]) were 9300 nM, 7.6 nM and 6.9 nM, respectively.

In the case of `O=C(N[C@H]1CC[C@@]2(CCN(c3cc(F)c(F)cc3Cl)C2=O)CC1)c1cnc2cccnn12` [Example 298, N-[(trans)-2-(2-chloro-4,5-difluorophenyl)-1-oxo-2-azaspiro[4.5]dec-8-yl]imidazo[1,2-b]pyridazine-3-carboxamide], the IC50 in experiment [1] was not below 50000 nM; on TNKS2 it was 2 nM; in experiment [2], 4.9 nM.

As for `Cc1cc(C)n2ncc(C(=O)N[C@H]3CC[C@@]4(CCN(c5cc(F)c(F)cc5Cl)C4=O)CC3)c2n1` [Example 299, N-[(trans)-2-(2-chloro-4,5-difluorophenyl)-1-oxo-2-azaspiro[4.5]dec-8-yl]-5,7-dimethylpyrazolo[1,5-a]pyrimidine-3-carboxamide], the IC50 was not below 50000 nM in experiment [1], 2 nM at TNKS2 and 0.9 nM in experiment [2].

Usually IC50 stands for the concentration that gives 50% inhibition. Lower therefore signals greater potency.
